Series [1] has as its target T1, human GLP-1R (Homo sapiens, UniProt P43220). As to the kind of experiment: cAMP accumulation (HitHunter), CHO-K1 cells expressing SNAP-human GLP-1R. The arrangement: expressed in transfected cells. Format: cell-based. The procedure:
(§1) cAMP production was measured using the HitHunter® cAMP Assay for Small Molecules kit in mammalian cell lines overexpressing either GLP-1R or GIPR. […] A total of 10,000 cells in 5 μL of media were added to each well of a 384-well, low-volume assay plate. For mouse receptor cAMP assays, either U2OS cells stably expressing mouse GLP-1R (DiscoverX 95-0179C3) or CHO-K1 cells stably expressing mouse GIPR (DiscoverX 95-0154C2) were used. Twenty-four hours before the assay, 5000-10,000 cells per well were plated in 384-well, low-volume tissue culture-treated plates in Assay Complete Cell Plating reagent 2 (murine GIPR cells) or 5 (murine GLP-1R cells). […] Compounds were diluted 1:1 in DMSO and 5 nL was transferred to the tissue-culture plate wells using an ECHO Acoustic Liquid Handler (Beckman Coulter).
(§2) Each dilution series was normalized to the adjacent high (100%) and low (0%) wells on the plate. Dose-response data were fitted to a curve using nonlinear regression analysis using the “log(agonist) vs response-variable slope” setting, where:
(§3) Y=Bottom+(Top−Bottom)/(1+10^((Log EC50−X)*HillSlope))
(§4) and the Hillslope was constrained to 1. Compound potency and efficacy were extracted from this regression analysis. […] For NanoBiT assays, a single time point during the 30-minute activity measurements was selected for maximum luminescence response. […]
A general note: Changes in cAMP serve as a functional read-out for many G protein-coupled receptors.

Series [2] addresses T1, human GLP-1R. Nature of the series: β-arrestin-2 recruitment (NanoBiT), HEK293, human GLP-1R. Format: cell-based. Further details: expressed in transfected cells; host or cells: HEK293 (stably or transiently transfected). To be noted: HEK293, read-out: β-arrestin-2 % Emax. The procedure: (§5) β-arrestin recruitment was measured using Promega's NanoBiT technology and Nano-Glo® Live Cell Substrate in HEK293 cells. β-arrestin-2 recruitment was measured using Promega's NanoBiT technology and Nano-Glo® Live Cell Substrate (catalog number N2012), which uses the NanoLuc luciferase split into two subunits called LgBiT and SmBiT. HEK293 cells were either stably or transiently transfected with equal amounts of DNA plasmids expressing the fusion proteins human GLP-1R-LgBiT or GIPR-LgBiT and SmBiT-(human)-β-arrestin-2; similar methods were used for mouse GLP-1R, GIPR, and β-arrestin-2. […] The following day, the media was removed and replaced with 10 μL of a 1:100 dilution of Nano-Glo® Live Cell Substrate with NanoBiT buffer and OptiMem and equilibrated to room temperature for ten minutes covered. Background luminescence was measured before adding 100 nL of compound dilutions (made in a 1:1 ratio in DMSO). Compounds were transferred using an ECHO Acoustic Liquid Handler (Beckman Coulter) and luminescence was measured at 1.5-minute intervals for 15 minutes using an EnVision Multimode Plate Reader (PerkinElmer; Waltham, MA).
(§6) Each dilution series was normalized to the adjacent high (100%) and low (0%) wells on the plate. […]
(§7) and the Hillslope was constrained to 1. […] For NanoBiT assays, a single time point during the 30-minute activity measurements was selected for maximum luminescence response. […]

Series [3] has as its target T2, human GIPR (Homo sapiens, UniProt P48546).
T2 sequence (P48546 22-466): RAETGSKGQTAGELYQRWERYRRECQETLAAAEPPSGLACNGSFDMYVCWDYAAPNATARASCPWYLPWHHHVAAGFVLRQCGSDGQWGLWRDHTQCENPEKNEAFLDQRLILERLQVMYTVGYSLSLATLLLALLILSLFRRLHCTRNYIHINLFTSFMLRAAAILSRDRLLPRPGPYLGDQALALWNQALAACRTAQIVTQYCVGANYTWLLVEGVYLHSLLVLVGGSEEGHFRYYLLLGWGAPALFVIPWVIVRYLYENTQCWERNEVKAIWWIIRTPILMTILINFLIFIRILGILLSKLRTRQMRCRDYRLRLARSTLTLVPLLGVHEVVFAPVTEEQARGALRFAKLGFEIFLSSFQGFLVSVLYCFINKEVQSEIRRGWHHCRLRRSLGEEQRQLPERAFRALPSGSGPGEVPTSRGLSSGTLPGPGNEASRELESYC
Nature of the series: β-arrestin-2 recruitment (NanoBiT), HEK293, human GIPR. The class given is cell-based. Further details: expressed in transfected cells; host or cells: HEK293 (stably or transiently transfected). To be noted: HEK293, read-out: β-arrestin-2 % Emax. The procedure: as §5, §6, §7

Series [4] is described as follows: Phase 1 SAD: pharmacokinetics. The class given is in vivo. Particulars: human, serum; SAD Cohort 4 (6.0 mg) single SC dose; read-out: Vz/F (mean).
From the text: PK parameters were also summarized using descriptive statistics (number of participants, mean, geometric mean, standard deviation, coefficient of variation, median, minimum, and maximum). In the SAD portion, the power model was used to assess dose proportionality.
For series [5], the target named is T2, human GIPR. As to the kind of experiment: cAMP accumulation (HitHunter), CHO-K1 cells expressing SNAP-human GIPR. Format: cell-based. The arrangement: expressed in transfected cells. How it is done: as §1, §2, §3, §4
Series [6] deals with T1, human GLP-1R. As to the kind of experiment: Receptor internalization (Nano-Glo HiBiT), HEK293, human GLP-1R. The class given is cell-based. The arrangement: expressed in transfected cells. How it is done:
Receptor internalization for human GLP-1R and GIPR was measured with Promega's Nano-Glo® HiBit extracellular detection system in HEK293 cells. Receptor internalization for human GLP-1R and GIPR was measured using the Promega Nano-Glo© HiBit extracellular detection system (Promega Corporation). HEK293 cells were transiently transfected with 1000:1 ratio of carrier plasmid (pcDNA3.1) and plasmids containing HiBiT-tagged human GLP-1R or human GIPR sequences (Promega Corporation). Cells were dissociated the following day using TrypLE express enzyme (ThermoFisher Scientific) and plated in 96-well plates at 80,000-100,000 cells per well. Forty-eight hours post-transfection, media was replaced with equal parts CO2 independent media (Gibco) and Nano-Glo extracellular buffer containing LgBiT protein (diluted 1:100), and Nano-Glo HiBiT extracellular substrate (diluted 1:50). After a 15-minute equilibration and background luminescence reading, test compounds were added and the luminescence was measured for 120 minutes at two-minute intervals using an EnVision Multimode Plate Reader (PerkinElmer).
as §4
A general note: The HiBiT peptide binds its large partner to form an active luciferase.

Starred links: 1 amine or outer side, 2 acyl side, 3 side chain; linkers in the order of their positions; H or OH if unused. Non-standard residues stand in square brackets, D forms with d. Residues, ends and D or L forms follow the SMILES beside them. Groups on a side chain read outwards from the residue. *: point of attachment. Isobutyryl(2-(3-CN-5-F-Ph)) = CC(C)(C(=O)*)c1cc(F)cc(C#N)c1; C20 diacid = O=C(O)CCCCCCCCCCCCCCCCCCC(=O)*; γGlu = O=C(O)[C@H](CCC(=O)[*:2])N[*:1]; AEEA = NCCOCCOCC(=O)O; Aib = CC(C)(N)C(=O)O; βAla = NCCC(=O)O

T1 sequence (P43220 24-463): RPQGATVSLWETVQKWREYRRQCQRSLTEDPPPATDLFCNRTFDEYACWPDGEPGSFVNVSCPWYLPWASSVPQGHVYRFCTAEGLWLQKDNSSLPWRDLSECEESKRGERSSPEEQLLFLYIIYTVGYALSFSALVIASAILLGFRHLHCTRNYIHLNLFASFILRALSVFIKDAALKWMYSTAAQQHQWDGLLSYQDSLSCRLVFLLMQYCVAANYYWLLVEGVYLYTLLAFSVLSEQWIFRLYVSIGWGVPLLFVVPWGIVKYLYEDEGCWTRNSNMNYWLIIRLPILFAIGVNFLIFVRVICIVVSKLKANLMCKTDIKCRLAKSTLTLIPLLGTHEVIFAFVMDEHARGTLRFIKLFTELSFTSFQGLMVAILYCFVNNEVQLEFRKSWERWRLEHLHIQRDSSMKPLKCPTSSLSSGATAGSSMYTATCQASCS

Turning to `CC[C@H](C)[C@H](NC(=O)[C@H](CC(C)C)NC(=O)[C@H](Cc1c[nH]c2ccccc12)NC(=O)[C@H](CCC(N)=O)NC(=O)[C@@H](NC(=O)[C@H](Cc1ccccc1)NC(=O)[C@H](C)NC(=O)[C@H](CCCCNC(=O)COCCOCCNC(=O)COCCOCCNC(=O)CC[C@H](NC(=O)CCCCCCCCCCCCCCCCCCC(=O)O)C(=O)O)NC(=O)[C@H](CCC(N)=O)NC(=O)[C@H](C)NC(=O)[C@@H](NC(=O)[C@H](CCCCN)NC(=O)[C@H](CC(=O)O)NC(=O)[C@H](CC(C)C)NC(=O)C(C)(C)NC(=O)[C@@H](NC(=O)[C@H](CO)NC(=O)[C@H](Cc1ccc(O)cc1)NC(=O)[C@H](CC(=O)O)NC(=O)[C@H](CO)NC(=O)[C@@H](NC(=O)[C@H](Cc1ccccc1)NC(=O)[C@@H](NC(=O)CNC(=O)[C@H](CCC(=O)O)NC(=O)CCNC(=O)C(C)(C)c1cc(F)cc(C#N)c1)[C@@H](C)O)[C@@H](C)O)[C@@H](C)CC)[C@@H](C)CC)C(C)C)C(=O)N[C@@H](C)C(=O)NCC(=O)NCC(=O)N1CCC[C@H]1C(=O)N[C@@H](CO)C(=O)N[C@@H](CO)C(=O)NCC(=O)N[C@@H](C)C(=O)N1CCC[C@H]1C(=O)N1CCC[C@H]1C(=O)N1CCC[C@H]1C(=O)N[C@@H](CO)C(N)=O` [CT-388] ({Isobutyryl(2-(3-CN-5-F-Ph))-βAla}-EGTFTSDYSI[Aib]LDKIAQK([AEEA-AEEA-γGlu-C20 diacid])AFVQWLIAGGPSSGAPPPS-NH2), the Emax (commonly the greatest response seen or fitted, relative to the assay's reference) in series [1] came to 99%; in series [2], 4%; in series [3] it was 28%; in series [5], 92%; in series [6], 6%. Besides, the Vd/F in series [4] is 11.4 L.

These data come from patent US20260137758A1, “TREATMENT OF STEATOTIC LIVER DISEASE ASSOCIATED WITH METABOLIC DYSFUNCTION” (priority 2024, published 2026).
